“And” between values parts separate entries of the source, which are not always exact repeats. Equal values may be shown once. Read-outs that look alike come from different tables or passages of the source. Square brackets hold non-standard residues; d marks the D form. Peptide text beside a SMILES is read from it. Nle = CCCC[C@H](N)C(=O)O
Legend:
CatL [1] = settings: cited from earlier work; for IC50: Table S1, SI reference list
[2] = system: SARS-CoV-2-GFP in Vero E6 cells; assay: microbe, parasite or virus in culture; assay type: cell-based
CatL [3] = target: T1, CatL (Homo sapiens, UniProt P07711, T223A); assay: NanoDSF, thermal stability of CatL; assay type: binding; settings: for 2:1, Tm average (CatL): 2:1 compound to protein; for 20:1, Tm average (CatL): 20:1 compound to protein
T1 construct: made in house; host or cells: Komagataella pastoris strain GS115

SARS-CoV-2 Mpro = SARS-CoV-2 Mpro (Severe acute respiratory syndrome coronavirus 2, UniProt P0DTD1); assay type: binding; settings: 2:1 compound to protein
CatL [4] = target: T1, CatL; assay: CatL inhibition assay (Ki), substrate Z-RR-AMC; assay type: biochemical
Procedure: (§1) Experiments were performed in a solution of 50 mM sodium acetate, pH 4.0, 50 mM NaCl, 0.1% PEG 6000, and 5 mM DTT. Distinct assays with epoxide inhibitors at pH 6.0 were performed in 50 mM sodium phosphate buffer, 50 mM NaCl, 5 mM DTT, 0.1% PEG 6000, adjusted to pH 6.0.
(§2) M1000 pro plate reader (Tecan), the fluorescent peptide substrate Z-RR-AMC, and excitation and emission wavelengths of 370 and 460 nm, respectively.
(§3) At first, the inhibitor concentration span was optimized for each inhibitor and the assay buffer. For this initial screening, CatL (5 nM) was mixed with different concentrations of inhibitors (1 nM–50 μM) to determine the range of their inhibition. […] Reaction data were fitted to the […] in GraphPad Prism 9 software: Y = bottom + (top – bottom)/(1 + 10^∧((log IC50 – X) × HillSlope)); X is the log of dose or concentration, Y is the response (fluorescence signal), decreasing as X increases, top and bottom are the plateaus in the same units as Y, log IC50 same log units as X, HillSlope is the slope factor or called the Hill slope.

CatL [5] = target: T1, CatL; assay: CatL inactivation assay comparing epoxides at pH 6 and pH 4; assay type: biochemical
Procedure: as §1, §2, §3
Figure S7. Inactivation of CatL.
(1 picture or pasted object on this page, not shown here)

[6] = Cell viability assay (CellTiter-Blue); settings: African green monkey
in vitro = settings: African green monkey
[7] = Severe acute respiratory syndrome coronavirus 2, Vero C1008, 24 h, read-out: EC50 (24 h)
[8] = Severe acute respiratory syndrome coronavirus 2, Vero C1008, 24 h, read-out: EC50 (after 24 h)
[9] = Severe acute respiratory syndrome coronavirus 2, Vero C1008, 48 h, read-out: EC50 (after 48 h)
[10] = Severe acute respiratory syndrome coronavirus 2, Vero C1008, 48 h, read-out: EC50 (48 h)
[11] = read-out: Ki of CatL inhibition

T1 sequence (P07711 114-333 T223A): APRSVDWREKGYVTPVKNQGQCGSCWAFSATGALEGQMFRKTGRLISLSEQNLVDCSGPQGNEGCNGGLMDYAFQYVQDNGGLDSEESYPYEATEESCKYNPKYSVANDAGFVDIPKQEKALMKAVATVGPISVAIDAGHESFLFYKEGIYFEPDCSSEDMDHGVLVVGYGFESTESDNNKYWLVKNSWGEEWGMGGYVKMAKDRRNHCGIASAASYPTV

CSCCC(C=O)NC(=O)C(CC(C)C)NC(=O)C(CC(C)C)NC(C)=O (stereo not drawn) [CI-II] (Ac-Leu-Leu-Met-aldehyde; configuration not given here)
Ki (CatL [1]; Sasaki et al., read-out: Ki): 0.6 nM

CC(C)C[C@@H](C=O)NC(=O)[C@@H](NS(=O)(=O)c1ccc(F)cc1)C(C)C [CI-VI, 2-[(4-Fluorophenyl)sulfonylamino]-3-methyl-N-(4-methyl-1-oxopentan-2-yl)butanamide]
EC50 [2, 7]: 37.7 nM | EC50 [2, 8]: 37.7 nM | EC50 [2, 9]: 1330 nM | ΔTm [K] for CatL, 2:1 ratio (CatL [3]): 15.2 ± 0.4 K | 2:1, Tm average (CatL) (CatL [3]): 78.3 °C | 20:1, Tm average (CatL) (CatL [3]): 81.4 °C | ΔTm (for CatL), 2:1 compound to protein mixing ratio (CatL [3]; pH 5): 15,2 ± 0,4 °C and 15.2 °C | ΔTm (for CatL), 20:1 compound to protein mixing ratio (CatL [3]; pH 5): 18,3 ± 0,1 °C and 18.3 °C | 2:1, Tm average (Mpro) (SARS-CoV-2 Mpro): 54.5 °C | IC50 (CatL [1]): 1.6 nM

CC[C@H](C)[C@H](NS(=O)(=O)c1cccc2ccccc12)C(=O)N[C@H](C=O)Cc1c[nH]c2ccccc12 [CLI-IV, 1-Naphthalenesulfonyl-Ile-Trp-aldehyde]
EC50 [2, 7]: 7.3 nM | EC50 [2, 8]: 7.26 nM | EC50 [2, 10]: < 500 nM | EC50 [2, 9]: 411 nM | EC50 ([2]; read-out: EC50 (24 h)): < 10 nM | 2:1, Tm average (Mpro) (SARS-CoV-2 Mpro): 54.6 °C | remaining activity at 0.00028 µM (CatL [4]; CLI-IV 0.280 nM, read-out: Residual activity (Vi/V0)): 92.4% | remaining activity at 0.0004 µM (CatL [4]; CLI-IV 0.400 nM, read-out: Residual activity (Vi/V0)): 94.2% | remaining activity at 0.00058 µM (CatL [4]; CLI-IV 0.580 nM, read-out: Residual activity (Vi/V0)): 89.3% | remaining activity at 0.00082 µM (CatL [4]; CLI-IV 0.820 nM, read-out: Residual activity (Vi/V0)): 92.1% | remaining activity at 0.00168 µM (CatL [4]; CLI-IV 1.680 nM, read-out: Residual activity (Vi/V0)): 78.4% | remaining activity at 0.0024 µM (CatL [4]; CLI-IV 2.400 nM, read-out: Residual activity (Vi/V0)): 60.1% | remaining activity at 0.00343 µM (CatL [4]; CLI-IV 3.430 nM, read-out: Residual activity (Vi/V0)): 40.4% | remaining activity at 0.007 µM (CatL [4]; CLI-IV 7.000 nM, read-out: Residual activity (Vi/V0)): 11% | remaining activity at 0.01 µM (CatL [4]; CLI-IV 10.000 nM, read-out: Residual activity (Vi/V0)): 5.5% | IC50 (CatL [1]): 1.9 nM

CN(C)C(=O)C(Cc1ccccc1)NC(=O)[C@H]1O[C@@H]1C(=O)NCCc1ccccn1 (stereo partly drawn) [CLIK148, N-(L-3-trans-(2-pyridin-2-yl-ethylcarbamoyl)-oxirane-2-carbonyl)-L-Phe-dimethylamide]
EC50 [2, 8]: 282 nM | EC50 [2, 9]: 2780 nM | ΔTm (for CatL), 2:1 compound to protein mixing ratio (CatL [3]; 5 µM CatL, pH 5.0, 2% DMSO, 2:1): 13,8 ± 0,1 °C and 13.8 °C | ΔTm (for CatL), 20:1 compound to protein mixing ratio (CatL [3]; 5 µM CatL, pH 5.0, 2% DMSO, 20:1): 13,9 ± 0,2 °C and 13.9 °C | 2:1, Tm average (CatL) (CatL [3]): 76.9 °C | 20:1, Tm average (CatL) (CatL [3]): 77 °C | ΔTm [K] for CatL, 2:1 ratio (CatL [3]; Table S1, 2:1 ratio): 13.8 ± 0.1 K | 2:1, Tm average (Mpro) (SARS-CoV-2 Mpro): 54.8 °C | Inactivation Rate (CatL [5]; CLIK148, pH 4, 0.44 µM (440 nM)): 0.0004006 per second and 0.0003231 per second and 0.0004659 per second | Inactivation Rate (CatL [5]; CLIK148, pH 4, 0.99 µM (990 nM)): 0.0009097 per second and 0.0007894 per second and 0.0009283 per second | Inactivation Rate (CatL [5]; CLIK148, pH 4, 1.48 µM (1480 nM)): 0.00137 per second and 0.001226 per second and 0.001313 per second | Inactivation Rate (CatL [5]; CLIK148, pH 4, 2.22 µM (2220 nM)): 0.001929 per second and 0.00189 per second and 0.001923 per second | Inactivation Rate (CatL [5]; CLIK148, pH 4, 3.33 µM (3330 nM)): 0.00288 per second and 0.002823 per second and 0.002796 per second | Inactivation Rate (CatL [5]; CLIK148, pH 4, 5.00 µM (5000 nM)): 0.004395 per second and 0.004358 per second and 0.004463 per second | Inactivation Rate (CatL [5]; CLIK148, pH 6, 0.44 µM (440 nM)): 0.000984 per second and 0.001005 per second and 0.00104 per second | Inactivation Rate (CatL [5]; CLIK148, pH 6, 0.66 µM (660 nM)): 0.001629 per second and 0.001484 per second and 0.001519 per second | Inactivation Rate (CatL [5]; CLIK148, pH 6, 0.99 µM (990 nM)): 0.002031 per second and 0.002049 per second and 0.002115 per second | Inactivation Rate (CatL [5]; CLIK148, pH 6, 1.48 µM (1480 nM)): 0.002988 per second and 0.003179 per second and 0.003258 per second | Inactivation Rate (CatL [5]; CLIK148, pH 6, 2.22 µM (2220 nM)): 0.004844 per second and 0.004638 per second and 0.004732 per second | Inactivation Rate (CatL [5]; CLIK148, pH 6, 3.33 µM (3330 nM)): 0.00752 per second and 0.006254 per second and 0.007241 per second | Inactivation Rate (CatL [5]; CLIK148, pH 6, 5.00 µM (5000 nM)): 0.01516 per second and 0.01256 per second and 0.01191 per second | viability at 48 h, 1e-05 µM [6]: 99.3% | viability at 48 h, 0.0001 µM [6]: 100% | viability at 48 h, 0.001 µM [6]: 98% | viability at 48 h, 0.01 µM [6]: 101% | viability at 48 h, 0.1 µM [6]: 98.3% | viability at 48 h, 1 µM [6]: 104% | viability at 48 h, 10 µM [6]: 110%

CCCC[C@@H](C=O)NC(=O)[C@H](CC(C)C)NC(=O)OCc1ccccc1 [Calpeptin]
2:1, Tm average (CatL) (CatL [3]): 81.8 °C | 20:1, Tm average (CatL) (CatL [3]): 82 °C | Ki (CatL [1]; [11]): 0.13 nM | viability at 48 h, 1e-05 µM (in vitro): 100% | viability at 48 h, 0.0001 µM (in vitro): 98.4% | viability at 48 h, 0.001 µM (in vitro): 99.3% | viability at 48 h, 0.01 µM (in vitro): 97.9% | viability at 48 h, 0.1 µM (in vitro): 101% | viability at 48 h, 1 µM (in vitro): 101% | viability at 48 h, 10 µM (in vitro): 105%

CC(C)C[C@H](NC(=O)OCc1ccccc1)C(=O)N[C@@H](CC1CCNC1=O)C(O)S(=O)(=O)O (some centres unmarked) [GC-376]
Ki (CatL [1]; [11]): 0.26 nM

CCCC[C@@H](C=O)NC(=O)[C@H](CC(C)C)NC(=O)[C@H](CC(C)C)NC(C)=O [MG101] (Ac-Leu-Leu-[Nle]-aldehyde)
viability at 48 h, 1e-05 µM (in vitro): 103% | viability at 48 h, 0.0001 µM (in vitro): 102% | viability at 48 h, 0.001 µM (in vitro): 102% | viability at 48 h, 0.01 µM (in vitro): 102% | viability at 48 h, 0.1 µM (in vitro): 102% | viability at 48 h, 1 µM (in vitro): 101% | viability at 48 h, 10 µM (in vitro): 63%

CCCC[C@@H](C=O)NC(=O)[C@H](CC(C)C)NC(=O)[C@H](CC(C)C)NC(C)=O [MG-101, Acetyl-Leu-Leu-Nle-aldehyde] (Ac-Leu-Leu-[Nle]-aldehyde)
EC50 [2, 8]: 4.39 nM | EC50 [2, 10]: < 500 nM | EC50 [2, 9]: 198 nM | 2:1, Tm average (Mpro) (SARS-CoV-2 Mpro): 60.4 °C | Ki (CatL [4]; read-out: Ki): 0.064 nM and 0.0645 nM | remaining activity at 69 pM (CatL [4]; read-out: Residual activity (Vi/V0), MG-101 0.069 nM): 91.8% | remaining activity at 99 pM (CatL [4]; read-out: Residual activity (Vi/V0), MG-101 0.099 nM): 86.4% | remaining activity at 0.000141 µM (CatL [4]; read-out: Residual activity (Vi/V0), MG-101 0.141 nM): 80.3% | remaining activity at 0.000202 µM (CatL [4]; read-out: Residual activity (Vi/V0), MG-101 0.202 nM): 78.5% | remaining activity at 0.000288 µM (CatL [4]; read-out: Residual activity (Vi/V0), MG-101 0.288 nM): 70.1% | remaining activity at 0.000412 µM (CatL [4]; read-out: Residual activity (Vi/V0), MG-101 0.412 nM): 58.3% | remaining activity at 0.000588 µM (CatL [4]; read-out: Residual activity (Vi/V0), MG-101 0.588 nM): 43.3% | Ki (CatL [1]; read-out: Ki): 0.5 nM

Source: publication PMC11089505, “Structural Elucidation and Antiviral Activity of Covalent Cathepsin L Inhibitors” (Journal of Medicinal Chemistry, 2024)
